The source made the active and inactive calls. The calls are words filed in the database; no cut-off is given here.
What follows are molecules tested against E3 ubiquitin-protein ligase CBL-B (Homo sapiens) (UniProt Q13191) (assay: Inhibition of CBLB (unknown origin) using biotinylated ubiquitin as substrate at 20 uM incubated for 1 hr by microplate analysis).
Sequence of E3 ubiquitin-protein ligase CBL-B (Homo sapiens) (Q13191 whole entry): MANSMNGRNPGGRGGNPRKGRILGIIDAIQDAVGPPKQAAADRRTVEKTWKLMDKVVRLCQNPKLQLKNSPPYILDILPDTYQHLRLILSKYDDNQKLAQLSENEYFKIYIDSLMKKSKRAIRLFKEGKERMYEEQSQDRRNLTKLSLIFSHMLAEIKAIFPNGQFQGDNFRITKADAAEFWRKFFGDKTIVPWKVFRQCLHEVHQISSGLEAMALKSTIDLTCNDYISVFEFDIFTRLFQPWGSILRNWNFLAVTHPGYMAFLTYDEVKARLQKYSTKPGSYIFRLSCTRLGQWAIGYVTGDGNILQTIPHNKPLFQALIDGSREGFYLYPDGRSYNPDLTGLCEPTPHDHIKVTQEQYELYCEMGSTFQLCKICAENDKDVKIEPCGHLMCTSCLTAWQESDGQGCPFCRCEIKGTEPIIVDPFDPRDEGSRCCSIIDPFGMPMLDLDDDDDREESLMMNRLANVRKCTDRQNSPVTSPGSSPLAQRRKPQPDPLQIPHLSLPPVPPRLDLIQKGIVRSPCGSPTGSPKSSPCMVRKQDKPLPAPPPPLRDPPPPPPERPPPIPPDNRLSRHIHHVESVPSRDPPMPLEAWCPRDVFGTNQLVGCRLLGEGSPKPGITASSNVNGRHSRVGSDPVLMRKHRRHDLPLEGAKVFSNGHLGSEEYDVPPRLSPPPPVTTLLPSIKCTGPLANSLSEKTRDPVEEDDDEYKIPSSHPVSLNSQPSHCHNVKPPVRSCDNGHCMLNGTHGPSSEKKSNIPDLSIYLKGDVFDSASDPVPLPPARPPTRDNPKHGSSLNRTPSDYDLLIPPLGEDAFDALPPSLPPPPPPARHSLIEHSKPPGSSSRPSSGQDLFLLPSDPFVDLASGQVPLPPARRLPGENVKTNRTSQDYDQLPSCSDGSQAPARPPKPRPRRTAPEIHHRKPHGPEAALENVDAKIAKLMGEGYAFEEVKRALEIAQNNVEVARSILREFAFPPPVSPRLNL

| Structure (SMILES) | inhibition |
| --- | --- |
| CN1C[C@@H](Cl)[C@@]23C(=Nc4cc(Br)ccc42)N(C)CC[C@@]32Cc3ccc(Br)cc3N=C12 | inactive |
| CN1CC[C@]23Cc4ccc(Br)cc4N(C)C2=NC[C@@H](Cl)[C@]32C1=Nc1cc(Br)ccc12 | inactive |
| CN1C[C@@H](Cl)[C@@]23C(=Nc4ccccc42)N(C)C[C@H](Cl)[C@@]32Cc3ccc(Br)cc3N=C12 | inactive |
| CN1C[C@@H](Cl)[C@@]23C(=Nc4ccccc42)N(C)CC[C@@]32Cc3ccc(Br)cc3N=C12 | inactive |
| CN1C[C@H](Cl)[C@]23Cc4ccc(Br)cc4N(C)C2=NC[C@@H](Cl)[C@]32C1=Nc1ccccc12 | inactive |
| CN1CC[C@]23Cc4ccc(Br)cc4N(C)C2=NC[C@@H](Cl)[C@]32C1=Nc1ccccc12 | inactive |
